# From ChEMBL document CHEMBL5370540, “Discovery of pyrimidine-5-carboxamide derivatives as novel salt-inducible kinases (SIKs) inhibitors for inflammatory bowel disease (IBD) treatment” (Eur J Med Chem, 2023)
# Calls of active or inactive are those of the source. No cut-off for these calls is given here.
# Experiments:
# [1] = target: Serine/threonine-protein kinase SIK2 (Mus musculus) (UniProt Q8CFH6); assay: Inhibition of SIK2 in C57BL/6J mouse BMDM cells assessed as increase in Nurr77 mRNA level at 500 nM preincubated for 1 hr followed by LPS stimulation measured for 2 to 4 hrs by qPCR analysis; format: cell-based; conditions: time 3-5 hrs
# Sequence of Serine/threonine-protein kinase SIK2 (Mus musculus) (Q8CFH6 whole entry): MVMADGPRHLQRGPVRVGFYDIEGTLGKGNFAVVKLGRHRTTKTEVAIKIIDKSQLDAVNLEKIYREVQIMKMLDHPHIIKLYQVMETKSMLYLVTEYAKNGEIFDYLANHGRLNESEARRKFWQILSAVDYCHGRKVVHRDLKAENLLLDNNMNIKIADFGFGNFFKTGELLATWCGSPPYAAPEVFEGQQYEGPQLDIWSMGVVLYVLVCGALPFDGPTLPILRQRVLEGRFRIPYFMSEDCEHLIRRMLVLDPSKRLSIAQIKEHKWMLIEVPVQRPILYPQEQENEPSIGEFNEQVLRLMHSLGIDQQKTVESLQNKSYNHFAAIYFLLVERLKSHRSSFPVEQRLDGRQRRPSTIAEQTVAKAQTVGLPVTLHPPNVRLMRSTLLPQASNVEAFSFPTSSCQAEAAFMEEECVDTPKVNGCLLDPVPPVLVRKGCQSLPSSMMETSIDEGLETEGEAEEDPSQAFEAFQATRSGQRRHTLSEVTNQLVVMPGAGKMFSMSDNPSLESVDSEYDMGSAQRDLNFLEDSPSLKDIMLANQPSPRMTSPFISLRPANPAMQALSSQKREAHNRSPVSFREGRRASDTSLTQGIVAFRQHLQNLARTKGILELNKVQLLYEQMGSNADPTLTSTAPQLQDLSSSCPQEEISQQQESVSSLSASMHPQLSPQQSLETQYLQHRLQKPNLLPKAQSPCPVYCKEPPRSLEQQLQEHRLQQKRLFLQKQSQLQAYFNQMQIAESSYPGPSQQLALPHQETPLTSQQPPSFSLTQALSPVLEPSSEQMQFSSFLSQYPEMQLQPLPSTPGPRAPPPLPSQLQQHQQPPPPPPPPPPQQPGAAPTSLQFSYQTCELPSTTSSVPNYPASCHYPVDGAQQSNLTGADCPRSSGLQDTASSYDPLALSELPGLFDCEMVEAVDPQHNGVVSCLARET
# [2] = Tmax in Sprague-Dawley rat at 10 mg/kg, po measured upto 24 hrs by LC/MS/MS analysis; format: ADME, organism-based; conditions: in vivo
# [3] = Cmax in Sprague-Dawley rat at 5 mg/kg, iv measured upto 24 hrs by LC/MS/MS analysis; format: ADME, organism-based; set-up: dose 5 mg/kg, time < 24 hrs, route iv; conditions: in vivo
# [4] = Metabolic stability in human liver microsomes assessed as half life; format: ADME, Microsome
# [5] = Tmax in Sprague-Dawley rat at 5 mg/kg, iv measured upto 24 hrs by LC/MS/MS analysis; format: ADME, organism-based; conditions: in vivo
# [6] = Toxicity in DSS-induced colitis C57BL/6J mouse model at 30 mg/kg, ip; format: organism-based; conditions: in vivo
# [7] = AUC (0 to t) in Sprague-Dawley rat at 10 mg/kg, po measured upto 24 hrs by LC/MS/MS analysis; format: ADME, organism-based; set-up: dose 10 mg/kg, time < 24 hrs, route po; conditions: in vivo
# BMDM [8] = assay: Anti-inflammatory activity against C57BL/6J mouse BMDM cells assessed as decrease in IL-12 level at 500 nM preincubated for 1 hr followed by LPS stimulation measured after 8 hrs by ELISA method; format: functional, cell-based; conditions: time 9.0 hrs
# [9] = target: Tyrosine-protein kinase Tec (Homo sapiens) (UniProt P42680); assay: Inhibition of Tec (unknown origin) at 1 uM
# Sequence of Tyrosine-protein kinase Tec (Homo sapiens) (P42680 whole entry): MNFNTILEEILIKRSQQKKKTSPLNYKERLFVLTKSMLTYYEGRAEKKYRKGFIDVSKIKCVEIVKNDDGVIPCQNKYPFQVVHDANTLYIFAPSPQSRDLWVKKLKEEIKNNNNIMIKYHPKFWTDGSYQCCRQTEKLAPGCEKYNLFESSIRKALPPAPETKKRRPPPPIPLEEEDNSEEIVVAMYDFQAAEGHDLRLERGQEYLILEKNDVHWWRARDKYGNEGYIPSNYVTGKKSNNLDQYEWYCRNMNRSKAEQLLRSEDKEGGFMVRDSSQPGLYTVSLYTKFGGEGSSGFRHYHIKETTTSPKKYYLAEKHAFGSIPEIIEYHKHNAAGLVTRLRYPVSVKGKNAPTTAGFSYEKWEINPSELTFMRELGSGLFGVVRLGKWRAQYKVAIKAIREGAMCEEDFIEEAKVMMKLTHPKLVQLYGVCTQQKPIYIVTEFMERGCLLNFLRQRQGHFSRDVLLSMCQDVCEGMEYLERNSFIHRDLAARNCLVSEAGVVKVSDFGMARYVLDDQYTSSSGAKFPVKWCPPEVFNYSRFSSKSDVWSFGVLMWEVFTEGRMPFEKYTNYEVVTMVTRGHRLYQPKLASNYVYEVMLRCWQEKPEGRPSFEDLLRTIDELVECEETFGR
# [10] = target: Tyrosine-protein kinase Lck (Homo sapiens) (UniProt P06239); assay: Inhibition of LcK (unknown origin) at 1 uM
# Sequence of Tyrosine-protein kinase Lck (Homo sapiens) (P06239 2-509 limits assumed): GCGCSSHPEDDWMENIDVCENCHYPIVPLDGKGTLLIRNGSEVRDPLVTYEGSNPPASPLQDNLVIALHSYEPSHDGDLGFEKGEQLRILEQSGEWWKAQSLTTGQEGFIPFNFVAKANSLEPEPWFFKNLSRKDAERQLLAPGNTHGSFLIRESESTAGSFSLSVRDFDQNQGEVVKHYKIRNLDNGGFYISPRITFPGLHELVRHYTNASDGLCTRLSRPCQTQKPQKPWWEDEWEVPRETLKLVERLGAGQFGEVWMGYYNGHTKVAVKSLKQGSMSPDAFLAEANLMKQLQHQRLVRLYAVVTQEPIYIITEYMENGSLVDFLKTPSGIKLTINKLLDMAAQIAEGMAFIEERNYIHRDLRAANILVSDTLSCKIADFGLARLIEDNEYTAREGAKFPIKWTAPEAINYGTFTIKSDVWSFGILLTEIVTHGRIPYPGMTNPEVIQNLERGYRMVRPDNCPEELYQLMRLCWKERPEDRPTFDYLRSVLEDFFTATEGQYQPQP
# [11] = Protein binding in human plasma at 10 uM measured for 8 hrs by dialysis method; format: ADME, cell-free; conditions: read-out: PPB (converted)
# BMDM [12] = assay: Anti-inflammatory activity against C57BL/6J mouse BMDM cells assessed as decrease in IL-12 level upto 500 nM preincubated for 1 hr followed by LPS stimulation measured after 8 hrs by ELISA method; format: functional, cell-based; conditions: time 9.0 hrs
# [13] = target: Protein-tyrosine kinase 6 (Homo sapiens) (UniProt Q13882); assay: Inhibition of BRK (unknown origin) at 1 uM
# [14] = Half life in Sprague-Dawley rat at 10 mg/kg, po measured upto 24 hrs by LC/MS/MS analysis; format: ADME, organism-based; conditions: in vivo
# BMDM [15] = assay: Anti-inflammatory activity against C57BL/6J mouse BMDM cells assessed as decrease in IL-12 level at 500 nM preincubated for 1 hr followed by LPS stimulation measured after 4 to 8 hrs by ELISA method; format: functional, cell-based; conditions: time 5-9 hrs
# [16] = target: Tyrosine-protein kinase ABL2 (Homo sapiens) (UniProt P42684); assay: Inhibition of ARG (unknown origin) at 1 uM
# [17] = target: Tyrosine-protein kinase FRK (Homo sapiens) (UniProt P42685); assay: Inhibition of PTK5 (unknown origin) at 1 uM
# [18] = Clearance in Sprague-Dawley rat at 5 mg/kg, iv measured upto 24 hrs by LC/MS/MS analysis; format: ADME, organism-based; conditions: in vivo
# [19] = target: Proto-oncogene tyrosine-protein kinase Src (Homo sapiens) (UniProt P12931); assay: Inhibition of SRC (1 to 530 residues)(unknown origin) at 1 uM
# Sequence of Proto-oncogene tyrosine-protein kinase Src (Homo sapiens) (P12931 2-536 limits assumed): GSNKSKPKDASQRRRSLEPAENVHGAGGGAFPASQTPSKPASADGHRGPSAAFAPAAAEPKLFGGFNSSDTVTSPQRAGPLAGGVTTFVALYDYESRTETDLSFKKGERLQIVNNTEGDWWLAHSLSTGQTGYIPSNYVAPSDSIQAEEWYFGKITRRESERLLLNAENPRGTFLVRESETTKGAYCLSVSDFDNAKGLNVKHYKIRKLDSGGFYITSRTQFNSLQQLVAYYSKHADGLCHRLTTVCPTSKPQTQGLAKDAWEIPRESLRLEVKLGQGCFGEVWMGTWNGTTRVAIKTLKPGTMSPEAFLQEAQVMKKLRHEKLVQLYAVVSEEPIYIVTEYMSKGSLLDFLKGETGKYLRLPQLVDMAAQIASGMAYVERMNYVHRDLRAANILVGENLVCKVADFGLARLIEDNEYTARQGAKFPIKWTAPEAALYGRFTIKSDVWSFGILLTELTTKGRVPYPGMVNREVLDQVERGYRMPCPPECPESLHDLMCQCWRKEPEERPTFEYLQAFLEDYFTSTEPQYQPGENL
# [20] = target: Serine/threonine-protein kinase SIK2 (Mus musculus) (UniProt Q8CFH6); assay: Inhibition of SIK2 in C57BL/6J mouse BMDM cells assessed as increase in SPHK1 mRNA level at 500 nM preincubated for 1 hr followed by LPS stimulation measured upto 8 hrs by qPCR analysis; format: cell-based; conditions: time <= 9.0 hrs
# [21] = target: Tyrosine-protein kinase Lyn (Homo sapiens) (UniProt P07948); assay: Inhibition of Lyn (unknown origin) at 1 uM
# Sequence of Tyrosine-protein kinase Lyn (Homo sapiens) (P07948 2-512 limits assumed): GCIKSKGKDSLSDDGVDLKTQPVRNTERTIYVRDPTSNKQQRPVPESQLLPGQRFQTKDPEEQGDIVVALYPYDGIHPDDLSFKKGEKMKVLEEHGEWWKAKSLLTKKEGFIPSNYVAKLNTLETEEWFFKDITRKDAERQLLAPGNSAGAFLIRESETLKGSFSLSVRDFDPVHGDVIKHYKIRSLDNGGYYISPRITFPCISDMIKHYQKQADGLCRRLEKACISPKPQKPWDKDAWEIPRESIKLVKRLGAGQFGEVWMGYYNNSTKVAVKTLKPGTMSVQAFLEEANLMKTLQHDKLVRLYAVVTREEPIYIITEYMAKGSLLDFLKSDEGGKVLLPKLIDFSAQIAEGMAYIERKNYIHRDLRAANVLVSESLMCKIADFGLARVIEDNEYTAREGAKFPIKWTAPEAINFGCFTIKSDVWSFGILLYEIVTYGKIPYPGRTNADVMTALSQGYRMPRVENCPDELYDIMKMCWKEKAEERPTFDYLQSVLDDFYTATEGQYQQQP
# [22] = target: Cytoplasmic tyrosine-protein kinase BMX (Homo sapiens) (UniProt P51813); assay: Inhibition of Bmx (unknown origin) at 1 uM
# Sequence of Cytoplasmic tyrosine-protein kinase BMX (Homo sapiens) (P51813 whole entry): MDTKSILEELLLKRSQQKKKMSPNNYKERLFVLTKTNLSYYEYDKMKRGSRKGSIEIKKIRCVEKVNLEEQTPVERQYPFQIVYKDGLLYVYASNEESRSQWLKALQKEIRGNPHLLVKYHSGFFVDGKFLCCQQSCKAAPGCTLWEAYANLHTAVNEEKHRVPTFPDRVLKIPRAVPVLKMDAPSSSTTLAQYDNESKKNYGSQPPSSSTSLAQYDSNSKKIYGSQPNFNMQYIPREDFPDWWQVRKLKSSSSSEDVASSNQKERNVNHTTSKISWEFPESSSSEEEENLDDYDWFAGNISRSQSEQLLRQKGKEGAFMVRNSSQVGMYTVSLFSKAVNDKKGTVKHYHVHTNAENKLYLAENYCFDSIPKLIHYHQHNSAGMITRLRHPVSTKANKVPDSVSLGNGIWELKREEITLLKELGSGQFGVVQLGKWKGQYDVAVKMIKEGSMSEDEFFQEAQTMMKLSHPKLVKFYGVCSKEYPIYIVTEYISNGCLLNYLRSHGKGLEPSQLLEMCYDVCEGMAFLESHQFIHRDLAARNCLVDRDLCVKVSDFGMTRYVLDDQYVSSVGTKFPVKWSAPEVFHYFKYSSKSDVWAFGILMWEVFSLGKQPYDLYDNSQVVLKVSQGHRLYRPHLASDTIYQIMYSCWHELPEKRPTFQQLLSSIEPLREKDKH
# [23] = target: Activated CDC42 kinase 1 (Homo sapiens) (UniProt Q07912); assay: Inhibition of ACK1 (unknown origin) at 1 uM
# Sequence of Activated CDC42 kinase 1 (Homo sapiens) (Q07912 whole entry, looked up): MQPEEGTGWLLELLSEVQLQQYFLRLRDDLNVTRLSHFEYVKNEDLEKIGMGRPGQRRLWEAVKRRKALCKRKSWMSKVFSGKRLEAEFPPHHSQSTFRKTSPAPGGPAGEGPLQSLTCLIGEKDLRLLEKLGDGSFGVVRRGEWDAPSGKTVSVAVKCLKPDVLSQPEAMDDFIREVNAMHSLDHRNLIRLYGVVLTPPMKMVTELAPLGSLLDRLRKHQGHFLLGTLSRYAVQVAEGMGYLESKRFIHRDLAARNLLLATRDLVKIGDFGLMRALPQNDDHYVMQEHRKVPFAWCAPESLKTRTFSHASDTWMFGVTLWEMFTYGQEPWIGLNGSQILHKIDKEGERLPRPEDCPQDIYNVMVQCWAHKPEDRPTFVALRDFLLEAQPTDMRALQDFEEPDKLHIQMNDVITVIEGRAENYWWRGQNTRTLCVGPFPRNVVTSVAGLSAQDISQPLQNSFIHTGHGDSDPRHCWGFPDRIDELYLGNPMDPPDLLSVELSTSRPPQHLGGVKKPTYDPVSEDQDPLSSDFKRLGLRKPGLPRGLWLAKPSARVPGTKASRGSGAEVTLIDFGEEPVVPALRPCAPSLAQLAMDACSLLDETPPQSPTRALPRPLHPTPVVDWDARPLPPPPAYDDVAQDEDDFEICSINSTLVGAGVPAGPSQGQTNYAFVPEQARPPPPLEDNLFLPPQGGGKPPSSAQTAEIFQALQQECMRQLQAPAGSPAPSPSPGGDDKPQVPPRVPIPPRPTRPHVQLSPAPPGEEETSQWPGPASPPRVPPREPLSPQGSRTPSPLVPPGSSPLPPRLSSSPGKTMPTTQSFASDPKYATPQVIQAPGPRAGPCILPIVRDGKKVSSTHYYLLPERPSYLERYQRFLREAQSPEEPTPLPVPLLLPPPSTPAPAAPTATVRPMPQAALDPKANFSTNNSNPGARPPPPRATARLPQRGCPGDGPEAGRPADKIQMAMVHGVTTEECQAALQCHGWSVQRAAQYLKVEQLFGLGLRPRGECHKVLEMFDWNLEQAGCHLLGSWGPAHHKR
# Mus musculus = assay: Antiinflammatory activity in DSS-induced colitis C57BL/6J mouse model assessed as decrease in thickening of inherent base layer at 50 to 100 mg/kg, po measured after 12 days by H&E staining based analysis; format: functional, organism-based; conditions: dose 50-100 mg/kg, time 12.0 day
# [24] = Oral bioavailability in Sprague-Dawley rat at 10 mg/kg measured upto 24 hrs by LC/MS/MS analysis; format: ADME, organism-based; conditions: in vivo
# BMDM [25] = assay: Effect on TLR-stimulated CREB phosphorylation at Ser133 residue in C57BL/6J mouse BMDM cells at 500 nM preincubated for 1 hr followed by LPS stimulation measured upto 60 mins by Western blot analysis; format: functional, cell-based; conditions: time 2.0 hrs
# BMDM [26] = assay: Upregulation of CREB-dependent gene transcription in C57BL/6J mouse BMDM cells assessed as CRTC3 translocation to nucleus at 500 nM preincubated for 1 hr followed by LPS stimulation measured after 1 hr by immunofluorescence analysis; format: functional, cell-based; conditions: time 2.0 hrs
# [27] = target: Tyrosine-protein kinase Yes (Homo sapiens) (UniProt P07947); assay: Inhibition of Yes (unknown origin) at 1 uM
compound,measurement,setting,value
Cc1cccc(F)c1NC(=O)c1cnc(Nc2ccc(N3CCN(C)CC3)c(F)c2)nc1NC1CCC1,inhibition,[1],inactive
same,Tmax,[2],8 h
same,Cmax,[3],12000 ng/mL
same,half-life,[4],> 120 min
same,Tmax,[5],6 min
same,Activity,[6],Toxic
same,AUC(0-t) at 24 h,[7],9340 ng·h/mL
same,Activity,BMDM [8],Active
same,inhibition,[9],Active
same,inhibition,[10],Active
same,"fraction unbound at 8 h, 10 µM",[11],0.206
same,Activity,BMDM [12],Active
same,inhibition,[13],Active
same,half-life,[14],1030 min
same,Activity,BMDM [15],inactive
same,inhibition,[16],Active
same,inhibition,[17],Active
same,clearance,[18],3.33 mL/min/kg
same,inhibition,[19],Active
same,inhibition,[20],Active
same,inhibition,[21],Active
same,inhibition,[22],Active
same,inhibition,[23],Active
same,Activity,Mus musculus,Active
same,bioavailability,[24],23%
same,Activity,BMDM [25],inactive
same,Activity,BMDM [26],Active
same,inhibition,[27],Active
